Measurements taken from US9284531B2, “Differentiation of human pluripotent stem cells into cells expressing mature hepatocyte markers by 2D and bioreactor culture” (Takara Bio Europe AB, priority 2009, dated 2016).

Assays:
CYP3A4 = test: CYP P450 activity test in bioreactor cultures (midazolam to 1'OH midazolam); settings: both bioreactors HepDiff-1 and HepDiff-2, days 40 and 47, 3 μM at start
Experimental: (§1) Bioreactor cultures that were treated with the hepatic differentiation protocol were tested or their ability to metabolize phenacetin, diclophenac and midazolam via the phase I cytochrome (CYP) P450 enzymes CYP1A2, CYP2C9 and CYP3A4, respectively. At days 40 and 47 after inoculation of the cells a CYP P450 activity test was performed according to the scheme:
(§2) For this purpose, fresh medium inflow and medium outflow was closed and a cocktail of the test substances was injected into the recirculating medium to get the following concentrations at the beginning of the test: 3 μM Midazolam, 9 μM Diclophenac and 26 μM Phenacetin. During the next 24 hours, the bioreactor was operated in recirculation mode (no fresh medium was added and only the medium recirculation pump recirculates the medium). Samples from the recirculation were taken before starting the experiment and after 1, 4, 8 and 24 hours and analyzed for the metabolites of the test substances by liquid chromatography/mass spectrometry (LC/MS). Analyses were performed at Astrazeneca AB, Gothenburg, Sweden. After the last sample was taken the bioreactor was flushed with fresh medium in single pass mode with two times the volume of the bioreactor and tubing system and then switched to the normal perfusion mode recirculation with fresh medium inflow). […]

CYP1A2 = test: CYP P450 activity test in bioreactor cultures (phenacetin to acetaminophen); format: in vitro ADME, human; settings: bioreactors HepDiff-1 and HepDiff-2, hESC-derived cells, 26 μM at start, 24 h recirculation, LC/MS
Experimental: as §1, §2

HFF = HFF feeder cell experiments in 2D cultures and bioreactors (activin A production, proliferation); format: cell-based, human
Experimental: The metabolic activity and differentiation of the cells inside the bioreactors were characterized on a daily basis by measuring soluble factors in the medium outflow and in the recirculating medium. The following parameters were measured using automated clinical chemistry analyzers (Roche Diagnostics, Heidelberg, Germany): α-fetoprotein (AFP), alkaline phosphatase (AP), alanine transaminase (ALT), aspartate transaminase (AST), beta-human chorionic gonadotropin (β-hCG), c-peptide, carcinoembryonic antigen (CEA), cytokeratin fragment 19 (Cyfra 21-1), erythropoetin, estradiol, follicle stimulating hormone (FSH), factors II-V-X-XIII, fibrinogen, gamma-glutamyltransferase (GGT), glucose, lactate, lactate dehydrogenase (LDH), luteinizing hormone, neuronspecific enolase (NSE), osmolality, osteocalcin, pseudocholinesterase (PCHE), prealbumin progesterone, prolactin, S-100, thyroid-stimulating hormone (TSH), tissue plasminogen activator (TPA), transferrin (for a detailed description of the measurement methods see Table 8 in appendix). Additionally glutamine, glutamate, glucose, lactate, ammonium, pH, sodium (Na+), potassium (K+) were measured with a BioProfile 100 Plus device (Nova Biomedical, Waltham, Mass., USA). Activin A, insulin and albumin were measured with enzyme-linked immunosorbent assays (ELISAs) following the manufacturer's recommendations (activin A using products DY338, DY999, DY994, DY995 from R&D Systems, Wiesbaden-Nordenstadt, Germany; insulin using an ELISA from Invitrogen; albumin using an ELISA from Albuwell, Exocell Inc., Philadelphia, Pa., USA). Urea was measured using a colorimetric determination kit (QuantiChrom, BioAssay Systems, Hayward, Calif., USA). Galactose and sorbitol concentrations were measured by enzymatic assays (Roche Diagnostics).
The pluripotency supporting activity of the HFF could be correlated with their production of activin A. To further examine the behaviour of the HFF feeder cells several experiments only with HFF were carried out in 2D cultures and in two bioreactors.
In one experiment, the bioreactor is inoculated with active HFF that will be cultured in medium supplemented with serum and bFGF to stimulate HFF proliferation. Increase of the cell number is monitored by the levels of glucose consumption and lactate production. When a sufficient cell number is reached culture medium is changed to hBS medium for conditioning. Optimal medium exchange rates have to be determined for example measuring activin A and glucose concentrations in the conditioned medium as quality control parameters. A low glucose level might indicate the demand for increasing the medium feed rate and a low activin A level might be a sign for insufficient conditioning unsuitable to promote hESC pluripotency.

## Cc1ncc2n1-c1ccc(Cl)cc1C(c1ccccc1F)=NC2 [midazolam, Midazolam]
CYP3A4
  metabolism of midazolam: no metabolism

## CCOc1ccc(NC(C)=O)cc1 [phenacetin, Phenacetin]
CYP1A2
  metabolism of phenacetin by CYP1A1/1A2: Significant metabolism

## basic fibroblast growth factor [bFGF]
HFF; bioreactor experiment HFF-2, medium supplemented with serum replacement
  mitogenic effect on HFF: not observed
HFF; medium containing serum replacer
  activin A production by HFF: stimulated
HFF; medium supplemented with serum
  activin A production by HFF: did not stimulate
HFF; medium supplemented with serum, 2D and bioreactor experiment HFF-1
  mitogenic effect on active HFF: strong mitogenic effect
